Measured values from the supplement of paper PMC10307832.

Experiments:
Experiment in all cases: relative viability (nuclei count vs DMSO), 5 days (fraction); higher = more cells survive
[1] = compound: C1=CC(=CC=C1NC(=S)NNC2=C(C=C(C=C2[N+](=O)[O-])C(F)(F)F)[N+](=O)[O-])F [Kobe2602] + CS(=O)(=O)CCNCc1ccc(-c2ccc3ncnc(Nc4ccc(OCc5cccc(F)c5)c(Cl)c4)c3c2)o1 [Lapatinib] (partner 2 µM)
Procedure, shortened: (§1)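 The day after seeding in 1536-well plates, lung cancer cell lines were treated by pin tool with a single drug, or with a fixed anchor-drug dose together with five library-drug doses (not always all listed) in √10 steps. After 5 days, a combined fix-and-stain solution (final 0.05% Triton X-100, 1% formaldehyde, 1 ug/ml Hoechst) was added. Nuclei counted on 4× images gave relative viability as treated counts over vehicle counts, reported as the median of duplicate plates.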

[2] = compound: C1=CC(=CC=C1NC(=S)NNC2=C(C=C(C=C2[N+](=O)[O-])C(F)(F)F)[N+](=O)[O-])F [Kobe2602] + CS(=O)(=O)N1CCN(Cc2cc3nc(-c4cccc5[nH]ncc45)nc(N4CCOCC4)c3s2)CC1 [Pictilisib] (partner 1 µM)
Procedure, shortened: as §1

[3] = compound: O[C@@H](COc1cccc2ncccc12)CN1CCN([C@@H]2c3ccccc3[C@@H]3[C@H](c4ccccc42)C3(F)F)CC1 [Zosuquidar] + CS(=O)(=O)N1CCN(Cc2cc3nc(-c4cccc5[nH]ncc45)nc(N4CCOCC4)c3s2)CC1 [Pictilisib] (partner 1 µM)
Procedure, shortened: as §1

[4] = compound: C1=CC(=CC=C1NC(=S)NNC2=C(C=C(C=C2[N+](=O)[O-])C(F)(F)F)[N+](=O)[O-])F [Kobe2602] + COc1cc2c(Oc3ccc(NC(=O)C4(C(=O)Nc5ccc(F)cc5)CC4)cc3F)ccnc2cc1OCCCN1CCOCC1 [Foretinib] (partner 0.25 µM)
Procedure, shortened: as §1

With UMC-11 as the cell line, how does the relative viability ([1]; first compound 0.2 µM) read?
The relative viability was 0.696.

And the relative viability ([1]; first compound 0.6325 µM)?
The relative viability was 1.

What about the relative viability ([1]; first compound 2 µM) of the same cell line?
Its relative viability is 0.958.

What about the relative viability ([1]; first compound 6.325 µM) of the same cell line?
Its relative viability is 1.07.

What about the relative viability ([1]; first compound 20 µM) of the same cell line?
The relative viability was 1.12.

What about the relative viability ([2]; first compound 0.2 µM) of the same cell line?
The relative viability was 0.865.

And the relative viability ([2]; first compound 0.6325 µM)?
The relative viability was 0.863.

And the relative viability ([2]; first compound 2 µM)?
The relative viability was 0.847.

And the relative viability ([2]; first compound 6.325 µM)?
Its relative viability is 0.778.

And the relative viability ([2]; first compound 20 µM)?
The relative viability was 0.868.

What about the relative viability ([3]; first compound 0.01 µM) of the same cell line?
The relative viability was 0.663.

And the relative viability ([3]; first compound 0.03162 µM)?
Its relative viability is 0.92.

What about the relative viability ([3]; first compound 0.1 µM) of the same cell line?
Its relative viability is 0.707.

What about the relative viability ([3]; first compound 0.3162 µM) of the same cell line?
Its relative viability is 0.881.

And the relative viability ([3]; first compound 1 µM)?
Its relative viability is 0.777.

What about the relative viability ([4]; first compound 0.2 µM) of the same cell line?
The relative viability was 1.03.

And the relative viability ([4]; first compound 0.6325 µM)?
Its relative viability is 0.957.

And the relative viability ([4]; first compound 2 µM)?
Its relative viability is 0.96.

What about the relative viability ([4]; first compound 6.325 µM) of the same cell line?
Its relative viability is 0.953.

What about the relative viability ([4]; first compound 20 µM) of the same cell line?
Its relative viability is 1.08.
